In patent publication US20140272041A1, “METHODS OF REDUCING PATHOGENS DURING PROCESSING OR POST-PROCESSING OF BEEF, POULTRY AND OTHER MEAT PRODUCTS” (BIRKO Corporation, priority 2009, published 2014):
Several values for one entry are separate records, joined by “and”; a condition that tells them apart may be missing. Identical values can stand only once.

What was measured:
Format in all cases: cell-based, Escherichia coli
[1] = system: E. coli ATCC 43888 (O157:H7); test: Log kill in aqueous bacterial suspension, plating on TSA; settings: 73 deg. F.
E. coli ATCC 43888 = test: Reaction mixture streak plate, visual observation; settings: room temperature
Procedure: The tests were performed at room temperature.

E. coli SAC-2 = test: Log kill / surviving titer in aqueous bacterial suspension, plating on TSA; settings: for Log Kill […] Lactic Acid: 75 degrees F.; for Log Kill: sulfate; for cfu per ml: 75 deg. F. (0.00 control 4.18E+07)
Procedure: In each instance a target sample was employed using approximately 50 micro liters of an SAC-2 culture. E. coli “SAC-2,” was a Gram-negative strain isolated from municipal sewage. The tests were performed at room temperature, i.e., 75 deg. F. […] The results of each test sample were evaluated using a series of 10-fold dilutions as needed to determine, on a standard plating agar (TSA), the titer of bacteria that survived the antimicrobial treatment.
The same procedure was employed as in Example 2, but the only agent added to the target solution was Niaproof 08. No lactic acid was employed.
The mixture was then diluted and plated as previously described.
Increasing amounts of reagent were added to a series of test tubes. […] The bacterial titer of each mixture was determined by preparation and plating of serial dilutions on TSA.
[…] […] The amphoteric and zwitterionic surfactants, which carry a net positive charge under the conditions of the reaction mixture, caused enhancement of the log kill by lactic acid. All anionic surfactants tested caused substantial enhancement of the log kill by lactic acid.

E. coli ATCC 12435 = test: as above; settings: for cfu per ml: no lactic acid (0.00 control 3.41E+07)
Procedure: The “reaction” (i.e. interaction of antimicrobial agent and the target organism) was initiated by the addition of bacteria to the antimicrobial solution. The reaction was allowed to proceed for the respective time periods listed in Table I (i.e., at least 15 seconds each) and was terminated at the end of that time by adding quench buffer comprising 3.2 M potassium phosphate buffer, pH 7.2. The sample then was evaluated using serial 10-fold dilutions into sterile phosphate buffer as needed to determine, on Tryptic Soy agar (“TSA”), the titer of surviving bacteria. TSA is a medium that allows the growth of most bacteria.
The reduction in the bacterial count is expressed as the “log kill” which is defined as log10 [initial cfu/ml]−log10 [remaining cfu/ml]; where “cfu” refers to “colony forming unit.” All log kills reported herein are positive “base 10.”). Inasmuch as the standard assay mixture contained only ca. 25×10^6 cfu initially (equivalent to 7.398 log) the theoretical maximum kill that can be measured with this assay system is ca. 7.4 log and the practical measuring limit is ca. 6 log. Therefore, high levels of log reduction were monitored by plating reaction mixtures directly (without dilution) onto agar medium. The results are reported in Table I and illustrated in graph format in FIG. 1. […] The tests were replicated with E. coli ATCC 43888, a pathogenic strain of E. coli O157:H7. […]
After incubation for 15 seconds at ambient temperature the reaction was quenched by addition of phosphate buffer and the titer of surviving bacteria was determined by plating on TSA as described in the previous examples. […] The amphoteric and zwitterionic surfactants, which carry a net positive charge under the conditions of the reaction mixture, caused enhancement of the log kill by lactic acid. All anionic surfactants tested caused substantial enhancement of the log kill by lactic acid.

[2] = Niaproof 08 0.02 wt./wt. % in 2.5 wt. % lactic acid
[3] = Niaproof 08 0.04 wt./wt. % in 2.5 wt. % lactic acid
[4] = Niaproof 08 0.06 wt./wt. % in 2.5 wt. % lactic acid
[5] = Niaproof 08 0.10 wt./wt. % in 2.5 wt. % lactic acid

CCCCC(CC)COS(=O)(=O)[O-].[Na+] (centres unmarked) [Niaproof 08, sodium 2-ethylhexyl sulfate]
+Niaproof 08 (Log Kill) ([1]; 2.5% lactic acid + Niaproof 08, pH 2.19, 20 secs.): 5.75 log
+Niaproof 08 (Log Kill) ([1]; 2.5% lactic acid + Niaproof 08, pH 2.42, 20 secs.): 3.17 log
+Niaproof 08 (Log Kill) ([1]; 2.5% lactic acid + Niaproof 08, pH 2.59, 20 secs.): 3.81 log
+Niaproof 08 (Log Kill) ([1]; 2.5% lactic acid + Niaproof 08, pH 2.74, 20 secs.): 4.94 log
+Niaproof 08 (Log Kill) ([1]; 2.5% lactic acid + Niaproof 08, pH 2.86, 20 secs.): 5.01 log
+Niaproof 08 (Log Kill) ([1]; 2.5% lactic acid + Niaproof 08, pH 3.24, 20 secs.): 0 log
+Niaproof 08 (Log Kill) ([1]; 2.5% lactic acid + Niaproof 08, pH 3.67, 20 secs.): 0 log
Description/Observation (E. coli ATCC 43888; Niaproof 08 0.02 % wt./wt. in 2.5 wt. % lactic acid): Extensive bacterial growth.
Description/Observation (E. coli ATCC 43888; Niaproof 08 0.04 % wt./wt. in 2.5 wt. % lactic acid): No bacterial growth.
Description/Observation (E. coli ATCC 43888; Niaproof 08 0.06 % wt./wt. in 2.5 wt. % lactic acid): No bacterial growth.
Description/Observation (E. coli ATCC 43888; Niaproof 08 0.08 % wt./wt. in 2.5 wt. % lactic acid): No bacterial growth.
Description/Observation (E. coli ATCC 43888; Niaproof 08 0.10 % wt./wt. in 2.5 wt. % lactic acid): No bacterial growth.
concentration of surfactant at which all bacteria added were killed (E. coli ATCC 43888; in 2.5 wt. % lactic acid): ≥ 0.04%
Log Kill […] Lactic Acid (E. coli SAC-2; Niaproof 08 0.02 % wt./wt. in […] lactic acid, 15 seconds): 0.575 log
Enhancement Factor (log10 kill with lactic acid and surfactant divided by log10 kill with lactic acid only) (E. coli SAC-2; [2]): 2.37
Log Kill (E. coli SAC-2; Niaproof 08 0.02 wt./wt. % in 2.5 wt. % lactic acid, 15 seconds, room temperature): 1.08 log and 1.080 log
Log Kill […] Lactic Acid (E. coli SAC-2; Niaproof 08 0.04 % wt./wt. in […] lactic acid, 15 seconds): 1.060 log
Enhancement Factor (log10 kill with lactic acid and surfactant divided by log10 kill with lactic acid only) (E. coli SAC-2; [3]): 3.82
Log Kill (E. coli SAC-2; Niaproof 08 0.04 wt./wt. % in 2.5 wt. % lactic acid, 15 seconds, room temperature): 1.74 log and 1.740 log
Log Kill […] Lactic Acid (E. coli SAC-2; Niaproof 08 0.06 % wt./wt. in […] lactic acid, 15 seconds): 1.011 log
Log Kill […] Lactic Acid (E. coli SAC-2; Niaproof 08 0.08 % wt./wt. in […] lactic acid, 15 seconds): 2.110 log
Enhancement Factor (log10 kill with lactic acid and surfactant divided by log10 kill with lactic acid only) (E. coli SAC-2; Niaproof 08 0.08 wt./wt. % in 2.5 wt. % lactic acid): 10.5
Log Kill (E. coli SAC-2; Niaproof 08 0.08 wt./wt. % in 2.5 wt. % lactic acid, 15 seconds, room temperature): 4.8 log and 4.800 log
Log Kill […] Lactic Acid (E. coli SAC-2; Niaproof 08 0.10 % wt./wt. in […] lactic acid, 15 seconds): 2.770 log
Log Kill […] Lactic Acid (E. coli SAC-2; Niaproof 08 0.12 % wt./wt. in […] lactic acid, 15 seconds): 2.820 log
Enhancement Factor (log10 kill with lactic acid and surfactant divided by log10 kill with lactic acid only) (E. coli SAC-2; Niaproof 08 0.12 wt./wt. % in 2.5 wt. % lactic acid): 13.4
Log Kill (E. coli SAC-2; Niaproof 08 0.12 wt./wt. % in 2.5 wt. % lactic acid, 15 seconds, room temperature): 6.1 log and 6.100 log
Enhancement Factor (log10 kill with lactic acid and surfactant divided by log10 kill with lactic acid only) (E. coli SAC-2; Niaproof 08 0.16 wt./wt. % in 2.5 wt. % lactic acid): 13.4
Log Kill (E. coli SAC-2; Niaproof 08 0.16 wt./wt. % in 2.5 wt. % lactic acid, 15 seconds, room temperature): 6.1 log and 6.100 log
Log Kill […] Lactic Acid (E. coli SAC-2; Niaproof 08 0.20 % wt./wt. in […] lactic acid, 15 seconds): 5.980 log
Enhancement Factor (log10 kill with lactic acid and surfactant divided by log10 kill with lactic acid only) (E. coli SAC-2; Niaproof 08 0.20 wt./wt. % in 2.5 wt. % lactic acid): 13.4
Log Kill (E. coli SAC-2; Niaproof 08 0.20 wt./wt. % in 2.5 wt. % lactic acid, 15 seconds, room temperature): ~6 log and 6.1 log and 6.100 log
Log Kill […] Lactic Acid (E. coli SAC-2; Niaproof 08 […] wt./wt. in […] lactic acid, 15 seconds): 5.980 log
elimination of detectable E. coli (E. coli SAC-2; Niaproof 08 above about 0.2 wt./wt. % in 2.5 wt. % lactic acid, 15 seconds, room temperature): complete elimination of detectable E. coli
cfu per ml (E. coli SAC-2; Niaproof 08 alone 0.02 % wt./wt., no lactic acid, 15 seconds): 4.05E+07 cfu per ml
cfu per ml (E. coli SAC-2; Niaproof 08 alone 0.06 % wt./wt., no lactic acid, 15 seconds): 3.63E+07 cfu per ml
cfu per ml (E. coli SAC-2; Niaproof 08 alone 0.14 % wt./wt., no lactic acid, 15 seconds): 4.25E+07 cfu per ml
cfu per ml (E. coli SAC-2; Niaproof 08 alone 0.20 % wt./wt., no lactic acid, 15 seconds): 4.15E+07 cfu per ml
antimicrobial effect of Niaproof 08 by itself (E. coli SAC-2; no lactic acid, up to 0.20 % wt./wt., 15 seconds): no antimicrobial effect
Log Kill (Lactic Acid + Surfactant) (E. coli SAC-2; surfactant 0.2% in 2.5% lactic acid, 15 seconds, 74 to 80 degrees F.): 4.08 log
Log Kill (Lactic Acid + Surfactant) (E. coli ATCC 12435; 0.1% Niaproof 08 in 2.5% lactic acid, 15 seconds, 83 degrees F.): 6.54 log
Enhancement Factor (E. coli ATCC 12435; [2]): 1.52
Log Kill (E. coli ATCC 12435; [2]): 3.469 log
Enhancement Factor (E. coli ATCC 12435; [3]): 1.43
Log Kill (E. coli ATCC 12435; [3]): 3.259 log
Enhancement Factor (E. coli ATCC 12435; [4]): 2.79
Log Kill (E. coli ATCC 12435; [4]): 6.367 log
Enhancement Factor (E. coli ATCC 12435; [5]): 2.86
Log Kill (E. coli ATCC 12435; [5]): 6.539 log
cfu per ml (E. coli ATCC 12435; Niaproof 08 alone 0.02 % wt./wt.): 3.41E+07 cfu per ml
cfu per ml (E. coli ATCC 12435; Niaproof 08 alone 0.06 % wt./wt.): 3.43E+07 cfu per ml
cfu per ml (E. coli ATCC 12435; Niaproof 08 alone 0.14 % wt./wt.): 3.56E+07 cfu per ml
cfu per ml (E. coli ATCC 12435; Niaproof 08 alone 0.20 % wt./wt.): 3.04E+07 cfu per ml
